In the RepoRT retention time repository (doi:10.1038/s41586-021-03707-9):

What was measured:
[1] = Waters ACQUITY UPLC BEH C18, 100 × 2.1 mm, 1.7 µm, 40 °C, 0.28 mL/min, estimated dead time 0.63 min; A: water + 6.5 mM ammonium hydroxide; B: methanol + 6.5 mM ammonium hydroxide; gradient (min/%B) 0/0.5 4/70 4.5/98 5.4/98; details: stereoisomer not certain
[2] = RP, Waters ACQUITY UPLC HSS C18, 100 × 2.1 mm, 1.7 µm, 40 °C, 0.35 mL/min, estimated dead time 0.63 min; A: water + 0.1% formic acid; B: methanol + 0.1% formic acid; gradient (min/%B) 0/0.5 4/70 4.5/98 5.4/98; details: stereoisomer not certain

LC retention time [1] [min] | LC retention time [2] [min] | Structure (SMILES)
5.05 | 4.87 | CC12CCC(=O)C=C1CCC1C2C(=O)CC2(C)C1CCC2(O)C(=O)CO (stereo not given)
1.2 | 1.14 | O=C(O)c1ccccn1
1.62 | 0.911 | Cc1cnc(=O)[nH]c1N
2.51 | 4.21 | O=C(O)Cc1c[nH]c2ccccc12
2.02 | 2.8 | O=C(NC(O)C(=O)O)c1ccccc1 (stereo not given)
0.859 | 0.799 | OCC1OC(OC2C(CO)OC(O)(CO)C2O)C(O)C(O)C1O (stereo not given)
2.75 | 2.9 | Cn1c(=O)c2[nH]cnc2n(C)c1=O
2.07 | 2.98 | CSCCC(NC(C)=O)C(=O)O (stereo not given)
1.72 | 2.92 | O=C(O)Cc1c[nH]c2ccc(O)cc12
4.12 | 5.18 | CCCCCCC(O)C(=O)O (stereo not given)
1.51 | 2.87 | O=C(O)C(O)Cc1ccc(O)cc1 (stereo not given)
3.29 | 4.08 | CCCCCC(=O)NCC(=O)O
1.87 | 1.85 | O=c1ccn(C2CC(O)C(CO)O2)c(=O)[nH]1 (stereo not given)
2.36 | 1.76 | NC(=O)C1CCCN1C(=O)C(Cc1cnc[nH]1)NC(=O)C1CCC(=O)N1 (stereo not given)
1.77 | 0.85 | Cc1ncc(CO)c(C=O)c1O
1.59 | 3.43 | COc1cc(C(=O)O)cc(OC)c1O
2.16 | 2.9 | CC=C(C)C(=O)NCC(=O)O
1.75 | 2.78 | CSCCC(NC=O)C(=O)O (stereo not given)
0.906 | 0.795 | O=C1OC(CO)C(O)C(O)C1O (stereo not given)
0.908 | 1.76 | Cc1cn(C2CC(O)C(COP(=O)(O)O)O2)c(=O)[nH]c1=O (stereo not given)
4.67 | 5.22 | CCCCCCCC(=O)NCC(=O)O
1.11 | 2.09 | O=c1[nH]c(=O)c2ncn(C3OC(CO)C(O)C3O)c2[nH]1 (stereo not given)
1.9 | 1.97 | NC(Cc1c[nH]c2ccc(O)cc12)C(=O)O (stereo not given)
2.73 | 3.9 | CC(=O)NC(CC(C)C)C(=O)O (stereo not given)
2.67 | 3 | Cc1ccc(S(=O)(=O)O)cc1
2.84 | 4.48 | COc1ccc(O)c(C(=O)O)c1
3.67 | 3.56 | COC(=O)C(Cc1ccccc1)NC(=O)C(N)CC(=O)O (stereo not given)

Structure (SMILES) | LC retention time [1] [min] | LC retention time [2] [min]
O=C(O)Cc1ccccc1 | 1.75 | 2.87
O=C(O)CNC(=O)c1cccnc1 | 1.67 | 1.74
COc1cc(C(O)CN)ccc1O (stereo not given) | 1.88 | 1.16
